Measured values: PMC12254266, “Multicolored sequential resonance energy transfer for detection of simultaneous ligand binding at G protein-coupled receptors” (Nature Communications, 2025)
Several values for one entry are separate records, joined by “and”; a condition that tells them apart may be missing. Equal entries are not always repeated.

Legend:
FFA1-Nluc [1] = biological target: T1, FFA1-Nluc (Homo sapiens, UniProt O14842); assay: Ca2+ mobilisation antagonism of FFA1 agonists (TUG-905, T360) in Flp-In T-REx 293 cells expressing FFA1-Nluc; assay type: cell-based; design: expressed in transfected cells
Description: Nluc-FFA1, FFA1-Nluc or untagged FFA1 Flp-In T-REx 293 cells were plated at 50,000 cells per well in poly-D-lysine coated black clear bottom 96-well plates. Cells were then cultured for 24 h until reaching confluency before culture medium was replaced with medium containing 100 ng/mL of doxycycline to induce receptor expression. Cells were cultured for a further 24 h before the assay. On the day of the assay culture medium was removed and replaced with medium containing 3 μM Fura2-AM Ca^2+ dye. […] Fura2 fluorescent emission at 520 nm following excitation with each of 340 and 380 nm was measured in regular intervals both before and after adding test compounds for a total of 90 s per well. Calcium responses were determined by taking the peak 340/380 ratio after first subtracting the ratios obtained prior to addition of test compound. […]
Ca2+ mobilization responses were measured in
Flp-In T-REx 293 cells expressing FFA1-Nluc. Ca2+ responses to increasing concentrations
pre-treated with 10 μM PPTQ. The mode of antagonism for PPTQ was assessed by
N=3 (A-D, F, H) or N=4 (E, G) independent experiments. S ource data are provided as a […]

FFA1-Nluc [2] = biological target: T1, FFA1-Nluc; assay: DISCo-BRET (endpoint, spectra scan, kinetics) with TUG-2591 and TUG-2597 at C terminal Nluc tagged FFA1; assay type: binding; design: expressed in transfected cells; conditions: for Specific BRET (690/540), % of control: Figure 4Aiii; for Specific BRET (690/540), % of control / Specific BRET (540/450), % of control: single replicate values (technical duplicate); for Specific BRET (540/450), % of control: Figure 4Biii
Outline: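 After Nano-Glo substrate (1:800 final), ligand-treated FFA1-Nluc or Nluc-FFA1 cells, doxycycline-induced (100 ng/mL), were read. Kinetic association/dissociation runs were at 25 °C; endpoint and 440–740 nm spectra came after 5 min at 37 °C. Non-specific signal came from competing ligands at high concentration.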

Nluc-FFA1 = biological target: T2, Nluc-FFA1 (Homo sapiens, UniProt O14842); assay: NanoBRET binding (saturation, competition, kinetics) at N terminal Nluc tagged FFA1; conditions: footnotes of Supplementary Table 3; read-out: Kd values obtained in NanoBRET saturation experiments (used for pKi) (converted)
T2 construct: expressed in transfected cells
Description: (§1) Nluc-FFA1 or FFA1-Nluc Flp-In T-REx 293 cells were plated at 50,000 cells per well in poly-D-lysine coated white 96-well plates. Cells were cultured for 24 h in the plate before medium was replaced with medium containing 100 ng/mL of doxycycline to induce receptor expression. After culturing for a further 24 h, medium was removed, cells were washed with HBSS and incubated in HBSS for 30 min. To start the assay, NanoGlo substrate (Promega, N1110) was added to the cells at a 1:800 final dilution and incubated for 10 min at 37 °C. For endpoint assays, including both saturation and competition binding, test ligands were then added, including both fluorescent and unlabelled competing ligands as indicated, and plates incubated for a further 5 min at 37 °C. NanoBRET was then quantified in a CLARIOstar microplate reader (BMG Labtech) by measuring luminescent emission with the monochrometer set for the Nluc donor at 450–60 nm, and acceptor luminescent emission 540–60 nm (NBD), 600–80 nm (Cy3.5) or 690–100 nm (SulfoCy5), depending on which fluorophore was being tested. The acceptor/donor BRET ratio was then taken as a measure of fluorophore binding. For kinetic on then off NanoBRET experiments plates were washed the same way and substrate was added to the same concentration. However, 10 min after substrate was added plates were inserted into the CLARIOstar microplate reader set to 25 °C to take repeated measurements of luminescent emission for both the donor and the acceptor fluorophore being used. After 5 min of background measurements, the indicated concentration of fluorescent ligand was added using the plate reader injector and luminescent emission was monitored for ~10 min before the reader was paused to manually add a high concentration of appropriate competing ligand to initiate dissociation. The plate was returned to the reader and luminescence measurements were continued for a further 30 min to monitor dissociation of the fluorescent ligand. For kinetic experiments using multiple concentrations of fluorescent ligand, cells were placed in the plate reader immediately after the addition of Nano-Glo substrate and luminescent measurements were taken. After 5 min, the reader was paused to add the indicated concentrations of fluorescent ligand, before measurements were continued. To set non-specific binding for kinetic experiments, the indicated competing ligand was added 5 min before the addition of the fluorescent ligand.

FFA1-Nluc [3] = biological target: T1, FFA1-Nluc; assay: NanoBRET binding (saturation, kinetics) at C terminal Nluc tagged FFA1; design: expressed in transfected cells; conditions: Sup Fig 7B
Description: as §1

T1 sequence (O14842 whole entry): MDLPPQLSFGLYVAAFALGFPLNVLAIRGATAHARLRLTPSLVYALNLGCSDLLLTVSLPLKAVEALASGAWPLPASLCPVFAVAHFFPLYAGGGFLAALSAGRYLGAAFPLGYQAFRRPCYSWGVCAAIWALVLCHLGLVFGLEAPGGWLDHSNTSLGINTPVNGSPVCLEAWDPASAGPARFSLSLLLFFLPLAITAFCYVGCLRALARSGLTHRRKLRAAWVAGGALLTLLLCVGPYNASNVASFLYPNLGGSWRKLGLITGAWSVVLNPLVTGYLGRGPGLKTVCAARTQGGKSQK
T2 sequence (O14842 whole entry): as above

In the case of `CCCN1C(=O)c2ccccc2[C@@H](C(=O)O)[C@@H]1c1ccc(OCc2cccc(-c3ccc(OCCCS(C)(=O)=O)cc3C)c2)cc1` (racemic) [TUG-2745], the “antagonism of site one agonist (TUG-905) Ca2+ response” value (FFA1-Nluc [1]; in words) is reported as “inhibits signalling from site one”, the “Ca2% Response (%)” value (FFA1-Nluc [1]; response to log[T360] -5 in presence of TUG-2745, Sup Fig 6H) is reported as 90.24% and 94.14% and 97.83% and 85.85% and 108.28% and 87.68% and the “Ca2% Response (%)” value (FFA1-Nluc [1]; response to log[T360] -6 in presence of TUG-2745, Sup Fig 6H) is reported as 106.53% and 104.17% and 101.28% and 97.48% and 114.91% and 110.38%. The “Ca2% Response (%)” value (FFA1-Nluc [1]; response to log[T360] -8 in presence of TUG-2745, Sup Fig 6H) was 5.16% and 2.24% and -0.89% and 3.26% and 3.57% and -0.49%, the “Ca2% Response (%)” value (FFA1-Nluc [1]; response to log[T360] -9 in presence of TUG-2745, Sup Fig 6H) was -1.82% and 2.64% and 1.16% and 1.84% and 0.35% and 1.32% and the “Ca2% Response (%)” value (FFA1-Nluc [1]; response to log[T360] -10 in presence of TUG-2745, Sup Fig 6H) was -0.06% and 1.71% and 3.56% and 4.07% and 1.54% and 0.19%. The “Ca2% Response (%)” value (FFA1-Nluc [1]; response to log[T360] -11 in presence of TUG-2745, Sup Fig 6H) was 2.74% and 2.14% and 3.49% and 1.57% and 6.13% and -0.07%, the “Ca2% Response (%)” value (FFA1-Nluc [1]; response to log[TUG-905] -5 in presence of TUG-2745, Sup Fig 6G) was 59.62% and 66.91% and 76.48% and 82.73% and 94.09% and 86.41% and the “pIC50 DISCo-BRET SulfoCy5/NBD” value (FFA1-Nluc [2]; 100 nM TUG-2591 and […] TUG-2597, one site model, NC = No competition) was 6.0±0.06. For the same molecule, the “Specific BRET (690/540), % of control” value (FFA1-Nluc [2]; log[Ligand] -5) was 0.92 % of control and 2.39 % of control and -9.90 % of control and -8.10 % of control and -2.12 % of control and -2.60 % of control and -5.52 % of control and -2.17 % of control, the “Specific BRET (540/450), % of control” value (FFA1-Nluc [2]; log[Ligand] -5) was 155.62 % of control and 107.52 % of control and 117.08 % of control and 99.92 % of control and 108.86 % of control and 92.88 % of control and 108.34 % of control and the “Specific BRET (690/540), % of control” value (FFA1-Nluc [2]; log[Ligand] -5.5) was 19.71 % of control and 24.68 % of control and 5.40 % of control and 1.46 % of control and 18.78 % of control and 3.37 % of control and 12.72 % of control and 3.96 % of control. The “Specific BRET (540/450), % of control” value (FFA1-Nluc [2]; log[Ligand] -5.5) was 128.42 % of control and 65.71 % of control and 109.72 % of control and 87.17 % of control and 104.75 % of control and 74.68 % of control and 117.49 % of control, the “Specific BRET (690/540), % of control” value (FFA1-Nluc [2]; log[Ligand] -6) was 43.09 % of control and 64.83 % of control and 36.45 % of control and 38.47 % of control and 45.84 % of control and 53.64 % of control and 35.79 % of control and 29.99 % of control and the “Specific BRET (540/450), % of control” value (FFA1-Nluc [2]; log[Ligand] -6) was 103.22 % of control and 89.76 % of control and 90.60 % of control and 69.85 % of control and 83.23 % of control and 146.81 % of control. The “Specific BRET (690/540), % of control” value (FFA1-Nluc [2]; log[Ligand] -6.5) was 78.64 % of control and 74.49 % of control and 82.00 % of control and 53.43 % of control and 70.00 % of control and 66.92 % of control and 69.40 % of control and 69.25 % of control, the “Specific BRET (540/450), % of control” value (FFA1-Nluc [2]; log[Ligand] -6.5) was 86.61 % of control and 51.40 % of control and 85.70 % of control and 71.65 % of control and 68.99 % of control and the “Specific BRET (690/540), % of control” value (FFA1-Nluc [2]; log[Ligand] -7) was 89.69 % of control and 92.82 % of control and 101.91 % of control and 88.41 % of control and 100.24 % of control and 95.91 % of control and 89.88 % of control and 95.21 % of control. The “Specific BRET (540/450), % of control” value (FFA1-Nluc [2]; log[Ligand] -7) was 100.64 % of control and 40.23 % of control and 87.50 % of control and 76.88 % of control and 80.22 % of control and 64.08 % of control and 139.58 % of control, the “Specific BRET (690/540), % of control” value (FFA1-Nluc [2]; log[Ligand] -8) was 95.21 % of control and 98.62 % of control and 92.91 % of control and 107.54 % of control and 94.56 % of control and 87.72 % of control and 98.50 % of control and 104.07 % of control and the “Specific BRET (540/450), % of control” value (FFA1-Nluc [2]; log[Ligand] -8) was 82.89 % of control and 76.59 % of control and 92.89 % of control and 70.83 % of control and 83.23 % of control and 65.66 % of control and 122.27 % of control. The “Specific BRET (690/540), % of control” value (FFA1-Nluc [2]; log[Ligand] -9) was 101.38 % of control and 98.62 % of control and 102.14 % of control and 95.05 % of control and 103.71 % of control and 93.98 % of control, the “Specific BRET (540/450), % of control” value (FFA1-Nluc [2]; log[Ligand] -9) was 57.41 % of control and 46.53 % of control and 87.83 % of control and 70.67 % of control and 68.35 % of control and 75.16 % of control and 107.46 % of control and the “'bottom' of the IC50 curve, DISCo-BRET SulfoCy5/NBD” value (FFA1-Nluc [2]; percentage of binding obtained in the absence of competing ligand, 100 nM TUG-2591 and […] TUG-2597) was -15%. The “pKi DISCo-BRET SulfoCy5/NBD” value (FFA1-Nluc [2]; using Kd TUG-2591 57 nM) was 6.4±0.06.
In the case of `CCCN1C(=O)c2ccccc2[C@@H](C(=O)O)[C@@H]1c1ccc(OCc2cccc(-c3ccc(OCCOCCNc4ccc([N+](=O)[O-])c5nonc45)cc3C)c2)cc1` [TUG-2884], the Kd (Nluc-FFA1) is reported as 940 nM, the “Specific BRET (%)” value (FFA1-Nluc [3]; [TUG-2884] 1 μM) is reported as 60.2367% and 75.4193% and 48.9635% and 51.5087% and 65.0111% and 65.7411% and the “Specific BRET (%)” value (FFA1-Nluc [3]; [TUG-2884] 2 μM) is reported as 98.0293% and 80.378% and 57.5363% and 68.9417% and 80.7303% and 88.1476%. The “Specific BRET (%)” value (FFA1-Nluc [3]; [TUG-2884] 4 μM, technical duplicates) was 96.6176% and 103.382%.
